Consider 11 compounds from US5464821A, “Small peptidic compounds useful for the treatment of glaucoma” (Carlbiotech, Ltd., priority 1991, dated 1995).

Residues, ends and D or L forms follow the SMILES beside them. *: point of attachment. OBn = c1ccc(CO*)cc1; Acm = CC(=O)NC*

Data set [1] has as its system stress induced intraocular pressure in the rabbit's eye. Description: stress induced antagonizing model, intraocular pressure in the rabbit's eye. The settings on record: for Antagonizing Effect: 1% solution in 0.9% aqueous NaCl, 60 μl topically 3 times daily over 5 days, following 10 stress units. Type of data set: in vivo. On the set-up: key to Antagonizing Effect: Active: the pressure increase following 10 stress units for the treated group on average was found to be smaller than 2 mm Hg and to be significantly less compared to untreated controls. The procedure:
The main feature of this clinical model is a stress induced elevation of the IOP in the rabbit eye above the initial and normal value. The stress is exerted, i.e. applied, in the form of measuring the pressure (at 12 hour intervals) with the help of a SHIOTZ-Tonometer, which is loaded with 7.5 grams. The pressure first begins to rise after 5 measurements, i.e. after 21/2 days, and reaches a maximum after 10 measurements, i.e. after 5 days.
Known antiglaucoma drugs lower the intraocular pressure when they are applied after the intraocular pressure (IOP) has clearly been established,in spite of the fact that the trauma, i.e. the measuring of the pressure, continued during the treatment.
Antagonizing of the Intraocular Pressure in the stressed Rabbit's Eyes Model
The compound was a freeze-dried powder, and was applied to the rabbit eye as a powder, or as drops, dissolved in 0.9% NaCl aqueous solution. Negative control was 0.9% NaCl solution in water.
(§1) Peptides were tested for the intraocular pressure lowering or antagonizing effects in the water load model described above or the stress induced antagonizing model respectively, in groups of four to ten rabbits, as described below. The tests were performed on homogeneous groups of randomly sexed rabbits, weight 2.5-3.0 kg, but of different breeds in various laboratories several places in the world. Thus, in some cases intergroup variations were found in the absolute starting pressure of the rabbit's eyes.
(§2) In the case of the water load model structure, each rabbit served as its own reference control for the duration of the experiment, and in the case of the stress induced antagonistic model, each group of rabbits served as reference control, at the beginning and end of 10 stress units. Usually, the peptides were dissolved in plain isotonic saline, but in one case in the waterload model, a TRIS-buffer at physiological pH was included.
The peptides were applied topically as a 1% solution in 0.9% aqueous NaCl in aliquots of 60 μl 3 times daily over a period of 5 days.

The test system is the same in data set [2]. The settings on record: earlier work in the laboratory of one of the inventors; cited from earlier work.
For data set [3], the system named is water load induced hypertension in the rabbit's eye. Description: water load model, intraocular pressure in the rabbit's eye. Type of data set: in vivo. The procedure: The findings of IOP lowering effects in the stress induced rabbit model have been confirmed and further studied by using another elevated eye pressure rabbit model. In this model, the widely applied water load model, elevation of the intraocular pressure is achieved by injecting a large volume of sterile water intraperitoneally into the rabbits. Following onset of eye drop treatment in one eye while the other eye is treated with saline placebo, the intraocular pressure of both eyes is then measured at various intervals and the .pressure difference between the eyes is taken as an expresion of the pharmaceutical effect.
The studies utilized a "water load" animal model.
Thirty minutes before drug solution instillation, rabbits were injected intraperitonally with 60 ml/kg of sterile distilled water for injection (30° C.) spiked with an antibiotic mixture (Sigma P9032).
At time zero, 50 μl of a drug solution was instilled to one eye and an equal volume of a saline solution was instilled to the other eye. The IOP in each eye was monitored at the time points indicated. The change in IOP at each time point is computed by subtracting the IOP in the dosed eye from that in the undosed-eye.
From these plots were assessed the maximal IOP effect, the time to reach this and the time for returning to a zero or insignificant level of IOP lowering effect. These figures were taken as a measure of potency and duration of effect.
as §1, §2
50 μl of a 1% solution of the peptides in 0.9% aqueous saline were applied in one eye and 50 μl of 0.9% aqueous saline in the other eye 30 minutes after the intraperitonal water loading and IOP were measured in both eyes for 2 hours and the difference calculated.
50 μl of 1% solution of the peptides in 0.9% isotonic saline containing TRIS-buffer pH 7.4 was applied in one eye and 50 μl of 0.9% isotonic saline containing TRIS-buffer. pH 7.4 in the other eye 30 minutes after the interperitonal water loading and intraocular pressure was measured in both eyes for 2 hours and the difference calculated.

For data set [4] the following is noted: from PCT/DK90/00322; cited from earlier work.
The mark [5] stands for this setting: single dose 50 μl of 1% solution in 0.9% aqueous saline in one eye, saline in the other, IOP measured for 2 hours.

On to `CC(C)C[C@H](NC(=O)[C@@H](N)CC(N)=O)C(=O)NCC(=O)N[C@@H](Cc1ccc(O)cc1)C(N)=O` [H-Asn-Leu-Gly-Tyr-NH2] (H-NLGY-NH2), for which the “Antagonizing Effect” value in data set [1] was “Active”.

As to `CC(C)(C)NC[C@H](O)COc1nsnc1N1CCOCC1` [timolol], in data set [2], the “pressure lowering effect of known drugs in the stress model” value is recorded as “pressure lowering effect”.

As to `CC[C@@H]1C(=O)OC[C@@H]1Cc1cncn1C` [pilocarpine, reference compound], the “pressure lowering effect in the water load model (in words)” value in data set [3] (2.6% solution, positive reference control) is “gave a similar response to some of the preferred compounds”.

Consider `CC(C)[C@H](NC(=O)CN)C(=O)OCc1ccccc1` [H-Gly-Val-OBzl, Glycyl-L-Valine-Benzylester] (H-Gly-Val-OBn), for which the “Antagonizing Effect” value in data set [1] was “Active”. For the same compound, in data set [1] (stress induced model), the “antagonizing effect / efficacy in the stress induced rabbit model (in words)” value is “good efficacy”. The “Pressure Lowering Effect” value in data set [3] (setting [5]) is listed as “Active”.

In the case of `CC(C)[C@H](NC(=O)CN)C(=O)N[C@@H](Cc1ccc(O)cc1)C(N)=O` [H-Gly-Val-Tyr-NH2] (H-Gly-Val-Tyr-NH2), the “Antagonizing Effect” value in data set [1] was “Active”. In addition, the “Pressure Lowering Effect” value in data set [3] (setting [5]) is on record as “Active”.

Consider `CC(C)[C@H](NC(=O)CNC(=O)CNC(=O)[C@@H](N)CC(N)=O)C(N)=O` [H-Asn-Gly-Gly-Val-NH2] (H-NGGV-NH2), for which the “Antagonizing Effect” value in data set [1] is reported as “Active”.

With `CCOC(=O)[C@@H](NC(=O)CNC(=O)CN)C(C)C` [H-Gly-Gly-Val-OEt] (H-Gly-Gly-Val-OEt), in data set [1], the “Antagonizing Effect” value is “Active”.

`CC(C)C[C@H](NC(=O)[C@@H](N)CC(N)=O)C(=O)NCC(=O)N[C@H](C(N)=O)C(C)C` [H-Asn-Leu-Gly-Val-NH2] (H-NLGV-NH2): the “Antagonizing Effect” value in data set [1] is “Active”.

As for `CC(=O)NCSC[C@H](NC(=O)[C@@H](NC(=O)CNC(=O)[C@H](CC(C)C)NC(=O)[C@@H](N)CC(N)=O)C(C)C)C(N)=O` [HAsnLeuGlyValCys(Acm)NH2, H-Asn-Leu-Gly-Val-Cys(Acm)-NH2] (H-NLGVC(Acm)-NH2), in data set [4], the “penetration of the sclera of the eye” value is given as “penetrate the sclera of the eye”.

As to `CC(C)[C@H](NC(=O)CCN)C(=O)OCc1ccccc1` [H-β-Ala-Val-OBzl, β-alanyl L-valine Benzylester], the “Pressure Lowering Effect” value in data set [3] (single dose 50 μl of 1% solution in 0.9% isotonic saline containing TRIS-buffer pH 7.4, IOP measured for 2 hours) is “Active”.

Take `CC(=O)NCC(=O)NCC(=O)N[C@H](C(N)=O)C(C)C` [Ac-Gly-Gly-Val-NH2] (Ac-Gly-Gly-Val-NH2): the “Antagonizing Effect” value in data set [1] is given as “Active”. Besides, the “Pressure Lowering Effect” value in data set [3] (setting [5]) was “Active”.
